Results taken from patent US5811074A, “Method of diagnosing pituitary dependent growth hormone deficiency” (University of South Florida, priority 1996, dated 1998).
Where a SMILES comes first, the peptide text is derived from it. Where no end group is shown, it is not given here. [ ]: non-standard residue; d: D form.

Experiments:
GH release [1] = conditions: rats; Bercu et al., 1992a; cited from earlier work
GH secretion [2] = assay: Provocative challenge with a GH secretagogue administered alone, peak serum GH; format: in vivo
Experimental: The diagnostic potential of GHRX and GHRH, with GHRP and growth hormone releasing hormone respectively the preferred compounds, for determining the etiology of GH secretory deficiency is profoundly affected by the sequence in which the secretagogues are administered. When GHRH is administered alone, the GH secretory response it elicits is extremely variable and is poorly dose related (Table 1).
On the other hand, the response to GHRP administered alone is not variable (Table 2). The minimal variability of the GHRP response is presumed to result from its partial action as a somatostatin […].
The growth hormone levels in the blood of the child or adult can be measured by any well known procedures, e.g., using an immunoradiometric assay as described by Bowers et al. (1990) or any other contemporary, scientifically accepted method.

GH release [3] = assay: GHRP-6 activity in young rats with reduced endogenous GHRH (GHRH antiserum or α-methyl-p-tyrosine); format: in vivo
Experimental: FIG. 2 is a dose response curve for GHRP-6 in rats pretreated with vehicle (triangles), α-methyl-p-tyrosine (circles), or GHRH antiserum (squares). Values represent means±SEM (8 rats per dose and treatment) in plasma collected 15 minutes after administration of GHRP-6.
Young rats were passively immunized against endogenous GHRH or administered α-methyl-.rho.-tyrosine. If GHRH and the endogenous ligand of GHRP-6 are physiological co-agonists of GH secretion in the young rat, then removal of one or the other should be expressed as attenuated activity of its co-agonist when administered alone. Passive immunization which inactivates GHRH with neutralizing antibodies, or α-methyl-p-tyrosine (L form) which blocks stimulation of hypothalamic GHRH neurons were used to remove or reduce concentrations of endogenous GHRH in the young experimental animals. These treatments were intended to simulate the aged condition in which concentrations of GHRH and GHRH mRNA are low (De Gennaro Collona et al., 1989; Morimoto et al., 1988). Afterwards, GHRP-6 was administered to test and compare its efficacy with that in old rats (Walker et al., 1991).
Presumably, naturally occurring decrements in endogenous GHRH during aging contributed to the blunted response to GHRP-6 that applicants observed (Walker et al., 1991). […]

GH secretion [4] = assay: Repeated injections of GHRH preceded by GHRP in the same individual, peak serum GH; format: in vivo; conditions: repeated tests in same individual
Experimental: The timing between the sequential, independent challenges must be between two and four hours with the preferred embodiment at two hours (120 minutes after GHRX administration). Blood is drawn at regular intervals for up to two hours after the administration of each secretagogue, generally every 5 minutes for the first 20 minutes after administration and 10-15 minute intervals thereafter for the remaining two hours. From these blood samples the peak GH response is measured thereby determining if GH level changes after each administration has occurred.
Relevant to using GHRH and GHRP as diagnostic agents is the fact that GHRP eliminates the endogenous factors causing variability in the GHRH response. Administration before GHRH creates an episode of GH secretion that "resets" the sensitivity of the GH neurosecretory axis to stimulation by GHRH, so that at the time of GHRH administration, uniform baseline conditions in the subject have been achieved. This then puts the GH neurosecretory axis in a uniform state of readiness for GHRH so that a subsequent relatively stable and constant episode of GHRH-stimulated GH secretion results (Table 3). This GHRH stimulated GH secretory episode can then be compared with the stable episode of GHRP-stimulated GH secretion that preceded it as a basis for the diagnostic test of the present invention.

GH secretion [5] = assay: Pediatric study: sequential GHRP then GHRH bolus, and co-administration, serum GH by radioimmunoassay; format: in vivo, children; conditions: for GH response to sequentially administered secretagogue: hypopituitary subject (atrophic, developmentally retarded pituitary gland), FIG. 4B
Experimental: The protocol used in the pediatric study from which data presented below were collected involved the sequential administration of exogenous GHRP and exogenous GHRH as set forth in the present invention (Table 4; FIGS. 1A-1B). Briefly, each subject began testing at approximately 0900 h, one half hour after placement of an intravenous catheter. Two blood samples for basal concentrations of serum GH were drawn, and GHRP (1 μg/kg) was administered as a bolus. Blood samples were then drawn at five minute intervals for 20 minutes during which the GH secretory response occurred, and at longer intervals for about two hours thereafter.
GHRH (1 μg/kg) was then administered as a bolus, when basal GH concentrations were again established. Blood samples were similarly collected after GHRH administration as they were following GHRP administration. GH concentrations in each serum was then determined by radioimmunoassay.
The study population was composed of children with normal GH secretory function (serving as controls and normal baseline values) and those with GH secretory dysfunction of various clinical diagnoses. The purpose of evaluating different etiologies of GH secretory dysfunction was to validate the hypothesis that complementary endogenous GH secretagogues must be present for optimal expression of GHRP or GHRH stimulatory potential.

GH release [6] = assay: GH release after GHRP-6 alone and in combination with GHRH in old versus young rats; format: in vivo, Fischer 344 rats; conditions: GHRP-6 alone, old vs young rats
Text: Fischer 344 rats (Charles River), both male and female, were used. Young animals are defined as sexually mature between 2 and 7 months of age. Old animals are defined as those over 16 months of age.
GHRH-efficacy has been reported to be reduced 50 to 75% in old rats (Sonntag et al., 1983); therefore, applicants tested the effect of GHRP-6 alone and in combination with GHRH on GH release in old rats. Peak plasma GH concentrations resulting from GHRP-6 administration in old rats were approximately 60% less than in young rats. […] Since target organs sometimes become hyperresponsive when tonic and/or phasic stimulation decreases, than one would expect exaggerated responses to provocative exogenous stimuli under experimental conditions. GH hypersecretion observed in naive, old rats administered a single bolus of GHRH and GHRP (Walker et al., 1991) provides support for the hypothesis that deficits in stimulated GH secretion in aged rats were due to insufficient signals or inappropriately transduced GH releasing stimuli.

pituitary GHRH receptor = molecular target: T1, pituitary GHRH receptor (Rattus norvegicus, UniProt Q02644); assay: Effect of GHRH receptor antagonist on GH release in response to GHRP-6 or morphine in young rats; format: in vivo
T1 construct: tissue Charles River; host or cells: living Fischer 344 rats (pituitary, in vivo)
T1 sequence (Q02644 23-464): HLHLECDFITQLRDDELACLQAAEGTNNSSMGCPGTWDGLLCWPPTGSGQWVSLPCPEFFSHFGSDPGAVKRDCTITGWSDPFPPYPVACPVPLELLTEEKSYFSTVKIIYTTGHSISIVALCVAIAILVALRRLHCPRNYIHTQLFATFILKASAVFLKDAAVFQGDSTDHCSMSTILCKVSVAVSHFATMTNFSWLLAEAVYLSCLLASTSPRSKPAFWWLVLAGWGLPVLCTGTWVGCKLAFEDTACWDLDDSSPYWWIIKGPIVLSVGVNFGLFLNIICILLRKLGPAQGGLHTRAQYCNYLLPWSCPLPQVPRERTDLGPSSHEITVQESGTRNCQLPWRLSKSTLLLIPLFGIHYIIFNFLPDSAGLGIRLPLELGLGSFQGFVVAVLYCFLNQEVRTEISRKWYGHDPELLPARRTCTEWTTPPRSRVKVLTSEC
Experimental: FIGS. 3A-3B are dose response curves showing the effect of [N-Ac-Tyr^1,D-Arg^2 ]-GRF 1-29 amide, a GHRHreceptor antagonist, on GH release in response to GHRP-6 (30 μg/kg, closed symbols, FIG. 3A) or morphine (1.5 mg/kg, open symbols, FIG. 3B). The GHRH receptor antagonist was administered in doses of 0 (circle), 5 (square), 50 (triangle), or 150 (diamond) μg/kg. Values represent mean±SEM 8 rats per group.
The second possible cause of age-related decrements in GH secretion applicants considered was that deterioration in GH secretagogue signal transduction at the pituitary level contributes to the progressive insensitivity to provocative stimuli. In a test of this hypothesis, applicants examined GH secretory responses to GHRP-6 in young rats administered [N-Ac-Tyr^1, D-Arg^2 ]-GRF 1-29, an antagonist to the pituitary GHRH receptor.
However, 150 μg/kg of [N-Ac-Tyr^1, D-Arg^2 ]-GRF 1-29 amide potentiated GHRP-6 activity, presumably due to partial agonist activity of the GHRH receptor […] at the higher dose (Bercu et al., 1992a).

## C[C@H](NC(=O)[C@@H](Cc1c[nH]c2ccccc12)NC(=O)[C@@H](N)Cc1c[nH]cn1)C(=O)N[C@@H](Cc1c[nH]c2ccccc12)C(=O)N[C@H](Cc1ccccc1)C(=O)N[C@@H](CCCCN)C(N)=O [GHRP-6, His-D-Trp-Ala-Trp-D-Phe-Lys-NH2] (H-H[dW]AW[dF]K-NH2)
GH release [1]
  Reduction of GHRP-6 activity by passive immunization against endogenous GHRH: approximately 90%
GH secretion [2]; GHRP alone, 0.1 μg/kg
  Peak Serum GH x ± SEM: 17.51 ± 1.91 ng/mL
GH secretion [2]; GHRP alone, 0.5 μg/kg
  Peak Serum GH x ± SEM: 41.31 ± 3.97 ng/mL
GH secretion [2]; GHRP alone, 1.0 μg/kg
  Peak Serum GH x ± SEM: 67.88 ± 6.1 ng/mL
GH secretion [2]; GHRP alone, 1.5 μg/kg
  Peak Serum GH x ± SEM: 81.60 ± 5.88 ng/mL
GH release [3]; young female rats pretreated with GHRH antiserum
  GHRP-6 activity (plasma GH 15 minutes after GHRP-6): significantly attenuated
GH release [3]; young female rats pretreated with α-methyl-p-tyrosine
  GHRP-6 activity (plasma GH 15 minutes after GHRP-6): significantly attenuated
GH secretion [4]; GHRP 1.0 μg/kg given first
  Peak Serum GH x ± SEM: 69.31 ± 4.21 ng/mL
GH secretion [5]; children after radiation of the head (group)
  GHRP:GHRH ratio: < 1
GH secretion [5]; children responding poorly to both secretagogues but better to GHRP (group)
  GHRP:GHRH ratio: > 3
GH secretion [5]; constitutional delay subject, FIG. 4C
  GHRP to GHRH ratio: 3.1
GH secretion [5]; constitutional delay subject, FIG. 4C, GHRP-6 1 μg/kg
  Peak response, serum GH: 13.5 ng/mL
GH secretion [5]
  GH response to sequentially administered secretagogue: responded to neither
GH secretion [5]; irradiated subject, FIG. 4D
  GHRP to GHRH ratio: 0.38
GH secretion [5]; irradiated subject, FIG. 4D, GHRP-6 1 μg/kg
  Peak response, serum GH: 18.9 ng/mL
GH release [6]
  Peak plasma GH concentration in old rats, less than in young rats: approximately 60%

## GHRH: naturally occurring GH releasing hormone (growth hormone releasing hormone) (YADAIFTNSYRKVLGQLSARKLLQDIMSRQQGESNQERGARARL; ends and bridges not checked; UniProt P01286 32-75, looked up)
GH secretion [2]; GHRH alone, 0.1 μg/kg
  Peak Serum GH x ± SEM: 9.46 ± 3.71 ng/mL
GH secretion [2]; GHRH alone, 0.33 μg/kg
  Peak Serum GH x ± SEM: 16.45 ± 8.11 ng/mL
GH secretion [2]; GHRH alone, 1.0 μg/kg
  Peak Serum GH x ± SEM: 13.54 ± 6.51 ng/mL
GH secretion [2]; GHRH alone, 3.3 μg/kg
  Peak Serum GH x ± SEM: 21.80 ± 6.78 ng/mL
GH secretion [2]; GHRH alone, 10.0 μg/kg
  Peak Serum GH x ± SEM: 17.41 ± 4.67 ng/mL
GH secretion [4]; GHRH 1.0 μg/kg preceded by GHRP
  Peak Serum GH x ± SEM: 32.66 ± 3.33 ng/mL
GH secretion [5]; constitutional delay subject, FIG. 4C, GHRH 1 μg/kg
  Peak response, serum GH: 4.4 ng/mL
GH secretion [5]
  GH response to sequentially administered secretagogue: responded to neither
GH secretion [5]; irradiated subject, FIG. 4D, GHRH 1 μg/kg
  Peak response, serum GH: 49.4 ng/mL

## [N-Ac-Tyr^1,D-Arg^2 ]-GRF 1-29 amide [[N-Ac-Tyr^1, D-Arg^2]-GRF 1-29 amide]
Pituitary GHRH receptor; 50 μg/kg antagonist, P<0.05, FIG. 3A
  GHRP-6 stimulated GH secretion as a function of time: significantly reduced
Pituitary GHRH receptor; 150 μg/kg antagonist, P<0.01, FIG. 3A
  GHRP-6 stimulated GH secretion as a function of time: significantly increased
Pituitary GHRH receptor; 150 μg/kg, GHRP-6 30 μg/kg
  Effect on GHRP-6 activity: potentiated
Pituitary GHRH receptor; 50 and 150 μg/kg antagonist, P<0.05, morphine 1.5 mg/kg, FIG. 3B
  Morphine-stimulated GH secretion: significantly reduced
Pituitary GHRH receptor; pre-administration of 5 to 50 μg/kg, GHRP-6 30 μg/kg
  Effect on GHRP activity: attenuated
